# Assays:
# [1] = tested on: PfCDPK1, PfPK6, PfCK2, PfGSK3, PfCLK1, Pfmap2, PfPK7, PfNek2, PfNek4, FIKK4.2, FIKK10.2, PfCK1, PfPK5; test: Thermal Shift Assay on recombinant Pf kinases; type: binding, P. falciparum; details: 2 µM kinase, 5 molar excess of compound
# [2] = tested on: P. falciparum 3D7 trophozoites; test: Metabolomic fingerprint profiling LC-MS; type: cell-based, Plasmodium falciparum; set-up: UDP-D-glucose / ADP-D-glucose: unit not given here
# [3] = tested on: P. falciparum; test: EC50 listed in S2 Table Metabolomics (used to set the concentration tested); type: cell-based; details: Plasmodium falciparum; EC50 used for Factor_XEC50 in metabolomics; read-out: EC50_nM
# [4] = tested on: P. falciparum M1 aminopeptidase; set-up: method as in ref [23] (a number printed in a supplementary file, which may have a reference list of its own: not looked up in the article's list); details: ref [23]; cited from earlier work
# [5] = tested on: P. falciparum M17 aminopeptidase; set-up: method as in ref [23] (a number printed in a supplementary file, which may have a reference list of its own: not looked up in the article's list); details: ref [23]; cited from earlier work
# [6] = target: T1, PfMTIP-MyoA (Plasmodium falciparum, UniProt Q8I4W8); test: SPR MTIP-MyoA PPI; type: binding, P. falciparum
# T1 construct: made in house; host or cells: E. coli BL21 DE3 (peptide)
# Experimental: Atg8-Atg3, Aldolase-TRAP, and Aldolase-MTRAP, MTIP-MyoA, GAP50-FactorH protein-protein interaction (PPI) inhibitor and Surface Plasmon Resonance screening to identify protein-protein interaction inhibitors, Bosch group (Atg8-Atg3 interactions are published in ref [38], rest are not or as noted below). In a primary screen, the Malaria Box compounds were screened at 5 µM final concentration in 1x PBS supplemented with 0.01% (v/v) P20 and 1% (v/v) DMSO using a Biacore 3000 instrument. While one protein was covalently attached to the chip surface via amine coupling, the analyte was passed over the chip in the presence and absence of Malaria Box compounds. Every 12th injection a positive control was passed over the chip to ensure constant binding of the partner protein during the duration of the experiment. Malaria Box compounds resulting in more than 25% decrease in binding of the two proteins to each other were further considered in a dose-response screen ranging from 50 µM to 200 nM. Similar to the primary screen, a positive control, consisting of the protein partner alone in the absence of small molecule compounds, was passed over the flow cells to ensure that the chip surface had not decayed over the course of the experiment. All SPR interaction studies were performed as previously described. […]
# [7] = target: PfPMT (Plasmodium falciparum, UniProt Q8IDQ9); test: PfPMT gene replacement yeast growth; details: 100µM
# [8] = metabolite level change after treatment
# T1 sequence (Q8I4W8 entry or part of it): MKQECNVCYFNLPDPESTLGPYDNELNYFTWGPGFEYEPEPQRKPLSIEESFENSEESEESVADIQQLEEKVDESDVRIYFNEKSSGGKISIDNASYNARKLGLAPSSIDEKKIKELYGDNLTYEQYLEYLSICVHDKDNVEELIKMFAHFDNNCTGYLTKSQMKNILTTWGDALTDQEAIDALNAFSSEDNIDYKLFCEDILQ
# Sequence of PfPMT (Q8IDQ9 whole entry): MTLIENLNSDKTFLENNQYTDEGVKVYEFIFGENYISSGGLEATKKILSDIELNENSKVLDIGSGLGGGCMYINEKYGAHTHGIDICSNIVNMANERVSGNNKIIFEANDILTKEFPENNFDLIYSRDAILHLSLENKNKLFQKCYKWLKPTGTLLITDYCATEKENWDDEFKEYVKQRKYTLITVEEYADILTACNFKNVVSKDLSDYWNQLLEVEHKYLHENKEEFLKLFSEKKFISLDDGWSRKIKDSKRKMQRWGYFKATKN
structure (smiles),measurement,setting,value
O=C(Nc1ccc(Cl)c(Cl)c1)Nc1ccc(Cl)c(Cl)c1 [MMV665852],thermal shift (ΔTm),[1],approximately 2 °C
Cc1cccc(-n2ncc3c(=O)[nH]c(-n4nc(C)cc4NC(=O)c4cc5ccccc5o4)nc32)c1 [MMV403679],thermal shift (ΔTm),[1],approximately 2 °C
c1ccc(Cn2c(N=Nc3c(Nc4ccccc4)ccc4ccccc34)nc3ccccc32)cc1 [MMV666023],Acetyllysine,"[2]; S2 Table Metabolomics, metabolite Acetyllysine",0.5853
same,N-acetyl-L-ornithine,"[2]; S2 Table Metabolomics, metabolite N-acetyl-L-ornithine",0.306
same,N-carbamoyl-L-aspartate,"[2]; S2 Table Metabolomics, metabolite N-carbamoyl-L-aspartate",1.052
same,NADPH,"[2]; S2 Table Metabolomics, metabolite NADPH",-0.03386
same,dAMP,"[2]; S2 Table Metabolomics, metabolite dAMP",0.6013
same,dCMP,"[2]; S2 Table Metabolomics, metabolite dCMP",-0.4205
same,dTDP,"[2]; S2 Table Metabolomics, metabolite dTDP",0.3507
same,dTMP,"[2]; S2 Table Metabolomics, metabolite dTMP",0.8714
same,dTTP,"[2]; S2 Table Metabolomics, metabolite dTTP",-0.2342
same,dihydroorotate,"[2]; S2 Table Metabolomics, metabolite dihydroorotate",1.31
same,orotate,"[2]; S2 Table Metabolomics, metabolite orotate",-0.6227
same,DLH,"[2]; S2 Table Metabolomics, peptide DLH",-0.403
same,DLS/SDL/SID,"[2]; S2 Table Metabolomics, peptide DLS/SDL/SID",-0.4178
same,PD,"[2]; S2 Table Metabolomics, peptide PD",0.5075
same,PEE,"[2]; S2 Table Metabolomics, peptide PEE",0.08891
same,PVNF,"[2]; S2 Table Metabolomics, peptide PVNF",-0.6731
same,3-phosphoglycerate,"[2]; metabolite 3-phosphoglycerate, S2 Table Metabolomics",0.03204
same,ADP-D-glucose,"[2]; metabolite ADP-D-glucose, S2 Table Metabolomics",-0.0135
same,ATP,"[2]; metabolite ATP, S2 Table Metabolomics",-0.2499
same,CDP,"[2]; metabolite CDP, S2 Table Metabolomics, change in metabolite level after compound treatment",0.1136
same,D-sedoheptulose-1/7-phosphate,"[2]; metabolite D-sedoheptulose-1/7-phosphate, S2 Table Metabolomics, change in metabolite level after compound treatment",0.2353
same,FAD,"[2]; metabolite FAD, S2 Table Metabolomics",0.06401
same,GMP,"[2]; metabolite GMP, S2 Table Metabolomics, change in metabolite level after compound treatment",-0.6431
same,NAD+,"[2]; metabolite NAD+, S2 Table Metabolomics",0.6404
same,NADP+,"[2]; metabolite NADP+, S2 Table Metabolomics",-0.009365
same,Octoluse Bisphosphate,"[2]; metabolite Octoluse Bisphosphate, S2 Table Metabolomics, change in metabolite level after compound treatment",-0.1419
same,Pyroglutamic acid,"[2]; metabolite Pyroglutamic acid, S2 Table Metabolomics",-0.07348
same,UDP-D-glucose,"[2]; metabolite UDP-D-glucose, S2 Table Metabolomics",0.05216
same,UDP-D-glucuronate,"[2]; metabolite UDP-D-glucuronate, S2 Table Metabolomics",-0.02666
same,UDP-N-acetyl-glucosamine,"[2]; metabolite UDP-N-acetyl-glucosamine, S2 Table Metabolomics",0.05509
same,UDP,"[2]; metabolite UDP, S2 Table Metabolomics, change in metabolite level after compound treatment",0.01697
same,UMP,"[2]; metabolite UMP, S2 Table Metabolomics, change in metabolite level after compound treatment",-0.4292
same,UTP,"[2]; metabolite UTP, S2 Table Metabolomics, change in metabolite level after compound treatment",-0.424
same,a-ketoglutarate,"[2]; metabolite a-ketoglutarate, S2 Table Metabolomics",-0.06383
same,citrate/isocitrate,"[2]; metabolite citrate/isocitrate, S2 Table Metabolomics, change in metabolite level after compound treatment",0.04119
same,cytidine,"[2]; metabolite cytidine, S2 Table Metabolomics",0.02473
same,dATP,"[2]; metabolite dATP, S2 Table Metabolomics",0.1105
same,dGMP/AMP,"[2]; metabolite dGMP/AMP, S2 Table Metabolomics, change in metabolite level after compound treatment",0.2165
same,fumarate,"[2]; metabolite fumarate, S2 Table Metabolomics, change in metabolite level after compound treatment",0.9246
same,glucose-1/6-phosphate,"[2]; metabolite glucose-1/6-phosphate, S2 Table Metabolomics, change in metabolite level after compound treatment",-0.4138
same,glycerate,"[2]; metabolite glycerate, S2 Table Metabolomics, change in metabolite level after compound treatment",0.03697
same,guanine,"[2]; metabolite guanine, S2 Table Metabolomics, change in metabolite level after compound treatment",-0.03399
same,guanosine,"[2]; metabolite guanosine, S2 Table Metabolomics, change in metabolite level after compound treatment",-0.2347
same,hypoxanthine,"[2]; metabolite hypoxanthine, S2 Table Metabolomics",-0.04929
same,indole,"[2]; metabolite indole, S2 Table Metabolomics",0.02614
same,inosine,"[2]; metabolite inosine, S2 Table Metabolomics, change in metabolite level after compound treatment",-0.0248
same,2_3-Diphosphoglyceric acid,[2]; [8],0.0759
same,4-phosphopantothenate,[2]; [8],0.08574
same,6-phospho-D-gluconate,[2]; [8],0.115
same,FMN,[2]; [8],-0.1537
same,IMP,[2]; [8],0.4441
same,Pyrophosphate,[2]; [8],0.2082
same,Sedoheptoluse bisphosphate,[2]; [8],0.1996
same,cyclic-AMP,[2]; [8],0.01699
same,glutathione disulfide,[2]; [8],0.1273
same,lactate,[2]; [8],-0.7178
same,myo-inositol,[2]; [8],-0.07069
same,nicotinate,"[2]; metabolite nicotinate, S2 Table Metabolomics",0.08369
same,ornithine,"[2]; metabolite ornithine, S2 Table Metabolomics",0.4536
same,phosphoenolpyruvate,"[2]; metabolite phosphoenolpyruvate, S2 Table Metabolomics",-0.0645
same,pyruvate,"[2]; metabolite pyruvate, S2 Table Metabolomics, change in metabolite level after compound treatment",-0.159
same,ribose-phosphate,"[2]; metabolite ribose-phosphate, S2 Table Metabolomics",-0.0332
same,sarcosine/alanine,"[2]; metabolite sarcosine/alanine, S2 Table Metabolomics, change in metabolite level after compound treatment",-0.02978
same,sn-glycerol-3-phosphate,"[2]; metabolite sn-glycerol-3-phosphate, S2 Table Metabolomics",-0.2072
same,succinate/methylmalonic acid,"[2]; metabolite succinate/methylmalonic acid, S2 Table Metabolomics, change in metabolite level after compound treatment",0.009689
same,uridine,"[2]; metabolite uridine, S2 Table Metabolomics, change in metabolite level after compound treatment",-0.07701
same,xanthosine,"[2]; metabolite xanthosine, S2 Table Metabolomics, change in metabolite level after compound treatment",-0.07995
same,EC50,[3],36.8 nM
same,inhibition of M1 in words,[4],moderate competitive inhibitors
same,inhibition of M17 in words,[5],moderate competitive inhibitors
O=C(NC(c1ccccc1)c1ccc2cccnc2c1O)c1ccccc1 (stereo not drawn) [MMV666080],identified against the PfMTIP-MyoA interaction,[6],identified against the PfMTIP-MyoA interaction
same,candidate inhibitors of PfPMT activity (yeast functional assay),[7],candidate inhibitors of PfPMT activity
Cc1ccc(CN2CCC(C(=O)Nc3ccc(-c4cc5ccccc5[nH]4)cc3)CC2)o1 [MMV666071],identified against the PfMTIP-MyoA interaction,[6],identified against the PfMTIP-MyoA interaction

# Reference: paper PMC4965013, “Open Source Drug Discovery with the Malaria Box Compound Collection for Neglected Diseases and Beyond” (PLoS Pathogens, 2016)
